These results are taken from patent US20230391845A1, “GLP-1, GIP AND GLUCAGON RECEPTOR TRIPLE AGONISTS” (priority 2020, published 2023).

*1 amine or outer side, *2 acyl side, *3 side chain or, on linkers, in order; H or OH if unused. Where a SMILES comes first, the peptide text is derived from it. Side-chain parts run from the residue outwards. [ ]: non-standard residue; d: D form. The star is where a group is joined. X1 = O=C(O)CCCCCCCCCCCCCCCCCCC(=O)NCC1CCC(C(=O)*)CC1; C20 diacid = O=C(O)CCCCCCCCCCCCCCCCCCC(=O)*; C18 diacid = O=C(O)CCCCCCCCCCCCCCCCC(=O)*; γGlu = O=C(O)[C@H](CCC(=O)[*:2])N[*:1]; εLys = N[C@@H](CCCCN[*:1])C(=O)[*:2]; AEEA = NCCOCCOCC(=O)O; Aib = CC(C)(N)C(=O)O

The nature of series [1]: Pharmacokinetic study in minipigs, i.v. administration. Also noted: species or system Göttingen minipigs. Conditions: minipig, in vivo, iv. The protocol:
The purpose of this example is to determine the half-life in vivo of the triple agonists as described herein after i.v. administration to minipigs, i.e. the prolongation of their time in the body and thereby their time of action. This is done in a pharmacokinetic (PK) study, where the terminal half-life of the triple agonist in question is determined. By terminal half-life is generally meant the period of time it takes to halve a certain plasma concentration, measured after the initial distribution phase.
Female Göttingen minipigs were obtained from Ellegaard Göttingen Minipigs (Dalmose, Denmark) approximately 7-14 months of age and weighing from approximately 16-35 kg were used in the studies. The minipigs were housed individually and fed restrictedly once daily with SDS minipig diet (Special Diets Services, Essex, UK).
After at 3 weeks of acclimatisation two permanent central venous catheters were implanted in vena cava caudalis in each animal. The animals were allowed 1 week recovery after the surgery, and were then used for repeated pharmacokinetic studies with a suitable wash-out period between successive dosings.
The animals were fasted for approximately 18 hours before dosing and from 0 to 4 hours after dosing, but had adlibitum access to water during the whole period.
Intravenous injections (the volume corresponding to usually 1.5-2 nmol/kg, for example 0.1 mL/kg) of the triple agonists were given through one catheter, and blood was sampled at predefined time points for up to 14 days post dosing (preferably through the other catheter). Blood samples (for example 0.8 mL) were collected in 8 mM EDTA buffer and then centrifuged at 4° C. and 1942 g for 10 minutes.
Plasma was pipetted into Micronic tubes on dry ice and kept at −20° C. until analysed for plasma concentration of the triple agonists using ELISA, or a similar antibody-based assay, or LCMS. Individual plasma concentration-time profiles were analysed by a non-compartmental model in Phoenix WinNonLin ver. 6.4. (Pharsight Inc., Mountain View, CA, USA), and the resulting terminal half-lives (harmonic mean) determined.

The target in series [2] is T1, human GLP-1 receptor (Homo sapiens, UniProt P43220).
T1 construct: expressed in transfected cells; host or cells: BHK cells (parent line BHKTS13) containing CRE luciferase
As to the kind of experiment: In vitro functional potency (CRE luciferase; whole cells), human GLP-1R. In kind it is cell-based. The conditions noted are these: BHK CRE luc2P hGLP-1R whole cells; Table 2; read-out: hGLP-1R CRE Luc EC50.

T1 sequence (P43220 24-463): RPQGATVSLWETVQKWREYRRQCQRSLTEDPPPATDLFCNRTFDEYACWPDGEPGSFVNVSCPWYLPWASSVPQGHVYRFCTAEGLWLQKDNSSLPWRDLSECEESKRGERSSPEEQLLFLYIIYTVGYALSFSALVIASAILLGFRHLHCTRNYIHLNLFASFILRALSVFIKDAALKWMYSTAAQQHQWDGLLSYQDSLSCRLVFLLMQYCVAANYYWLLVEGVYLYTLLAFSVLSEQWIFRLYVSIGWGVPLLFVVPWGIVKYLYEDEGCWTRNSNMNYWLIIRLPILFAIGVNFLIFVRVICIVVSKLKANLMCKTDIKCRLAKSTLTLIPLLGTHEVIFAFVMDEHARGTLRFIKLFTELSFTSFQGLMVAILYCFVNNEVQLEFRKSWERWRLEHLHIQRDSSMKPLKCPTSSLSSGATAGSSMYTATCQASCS

On to `CC[C@H](C)[C@H](NC(=O)[C@H](CO)NC(=O)[C@H](Cc1ccc(O)cc1)NC(=O)[C@H](CC(=O)O)NC(=O)[C@H](CO)NC(=O)[C@@H](NC(=O)[C@H](Cc1ccccc1)NC(=O)[C@@H](NC(=O)CNC(=O)[C@H](CCC(N)=O)NC(=O)C(C)(C)NC(=O)[C@@H](N)Cc1ccc(O)cc1)[C@@H](C)O)[C@@H](C)O)C(=O)N[C@@H](Cc1ccc(O)cc1)C(=O)N[C@@H](CC(C)C)C(=O)N[C@@H](CC(=O)O)C(=O)N[C@@H](CCCCN)C(=O)N[C@@H](CCC(N)=O)C(=O)N[C@@H](C)C(=O)N[C@@H](C)C(=O)NC(C)(C)C(=O)N[C@@H](CCCCNC(=O)COCCOCCNC(=O)COCCOCCNC(=O)CC[C@H](NC(=O)C1CCC(CNC(=O)CCCCCCCCCCCCCCCCCCC(=O)O)CC1)C(=O)O)C(=O)N[C@@H](Cc1ccccc1)C(=O)N[C@H](C(=O)N[C@@H](CCC(N)=O)C(=O)N[C@@H](Cc1c[nH]c2ccccc12)C(=O)N[C@@H](CC(C)C)C(=O)N[C@@H](CC(C)C)C(=O)N[C@@H](CCC(=O)O)C(=O)NCC(=O)NCC(=O)N1CCC[C@H]1C(=O)N[C@@H](CO)C(=O)N[C@@H](CO)C(=O)NCC(=O)N[C@@H](C)C(=O)N1CCC[C@H]1C(=O)N1CCC[C@H]1C(=O)N1CCC[C@H]1C(=O)N[C@@H](CO)C(N)=O)C(C)C` (stereo partly drawn) [Compound No. 8] (H-Y[Aib]QGTFTSDYSIYLDKQAA[Aib]K([AEEA-AEEA-γGlu-X1])FVQWLLEGGPSSGAPPPS-NH2; N-terminus assumed), for which the half-life in series [1] was 81 h.
In series [1], `CC[C@H](C)[C@H](NC(=O)[C@H](CO)NC(=O)[C@H](Cc1ccc(O)cc1)NC(=O)[C@H](CC(=O)O)NC(=O)[C@H](CO)NC(=O)[C@@H](NC(=O)[C@H](Cc1ccccc1)NC(=O)[C@@H](NC(=O)CNC(=O)[C@H](CCC(N)=O)NC(=O)C(C)(C)NC(=O)[C@@H](N)Cc1ccc(O)cc1)[C@@H](C)O)[C@@H](C)O)C(=O)N[C@@H](Cc1ccc(O)cc1)C(=O)N[C@@H](CC(C)C)C(=O)N[C@@H](CC(=O)O)C(=O)N[C@@H](CCCCNC(=O)COCCOCCNC(=O)COCCOCCNC(=O)CC[C@H](NC(=O)C1CCC(CNC(=O)CCCCCCCCCCCCCCCCCCC(=O)O)CC1)C(=O)O)C(=O)N[C@@H](CCC(N)=O)C(=O)N[C@@H](C)C(=O)N[C@@H](C)C(=O)NC(C)(C)C(=O)N[C@@H](CCC(=O)O)C(=O)N[C@@H](Cc1ccccc1)C(=O)N[C@H](C(=O)N[C@@H](CC(N)=O)C(=O)N[C@@H](Cc1c[nH]c2ccccc12)C(=O)N[C@@H](CC(C)C)C(=O)N[C@@H](CC(C)C)C(=O)N[C@@H](C)C(=O)NCC(=O)NCC(=O)N1CCC[C@H]1C(=O)N[C@@H](CO)C(=O)N[C@@H](CO)C(=O)NCC(=O)N[C@@H](C)C(=O)N1CCC[C@H]1C(=O)N1CCC[C@H]1C(=O)N1CCC[C@H]1C(=O)N[C@@H](CO)C(N)=O)C(C)C` (stereo partly drawn) [Compound No. 6] (H-Y[Aib]QGTFTSDYSIYLDK([AEEA-AEEA-γGlu-X1])QAA[Aib]EFVNWLLAGGPSSGAPPPS-NH2) had a half-life of 83 h.
`CC(C)C[C@H](NC(=O)[C@H](CC(C)C)NC(=O)[C@H](Cc1c[nH]c2ccccc12)NC(=O)[C@H](CCC(N)=O)NC(=O)[C@@H](NC(=O)[C@H](Cc1ccccc1)NC(=O)[C@H](CCC(=O)O)NC(=O)C(C)(C)NC(=O)[C@H](C)NC(=O)[C@H](C)NC(=O)[C@H](CCC(N)=O)NC(=O)[C@H](CCCCNC(=O)[C@@H](N)CCCCNC(=O)[C@@H](N)CCCCNC(=O)CC[C@H](NC(=O)CCCCCCCCCCCCCCCCC(=O)O)C(=O)O)NC(=O)[C@H](CCC(=O)O)NC(=O)[C@H](CC(C)C)NC(=O)[C@H](Cc1ccc(O)cc1)NC(=O)[C@H](Cc1ccc(O)cc1)NC(=O)[C@H](CO)NC(=O)[C@H](Cc1ccc(O)cc1)NC(=O)[C@H](CC(=O)O)NC(=O)[C@H](CO)NC(=O)[C@@H](NC(=O)[C@H](Cc1ccccc1)NC(=O)[C@@H](NC(=O)CNC(=O)[C@H](Cc1c[nH]cn1)NC(=O)C(C)(C)NC(=O)[C@@H](N)Cc1c[nH]cn1)[C@@H](C)O)[C@@H](C)O)C(C)C)C(=O)N[C@@H](CCC(=O)O)C(=O)NCC(=O)NCC(=O)N1CCC[C@H]1C(=O)N[C@@H](CO)C(=O)N[C@@H](CO)C(=O)NCC(=O)N[C@@H](C)C(=O)N1CCC[C@H]1C(=O)N1CCC[C@H]1C(=O)N1CCC[C@H]1C(=O)N[C@@H](CO)C(N)=O` [Compound No. 32] (H-H[Aib]HGTFTSDYSYYLEK([εLys-εLys-γGlu-C18 diacid])QAA[Aib]EFVQWLLEGGPSSGAPPPS-NH2) had a half-life in series [1] (female, Göttingen) of 52 h.
On to `CC(C)C[C@H](NC(=O)[C@H](CC(C)C)NC(=O)[C@H](Cc1c[nH]c2ccccc12)NC(=O)[C@H](CCC(N)=O)NC(=O)[C@@H](NC(=O)[C@H](Cc1ccccc1)NC(=O)[C@H](CCC(=O)O)NC(=O)C(C)(C)NC(=O)[C@H](C)NC(=O)[C@H](C)NC(=O)[C@H](CCC(N)=O)NC(=O)[C@H](CCCCNC(=O)[C@@H](N)CCCCNC(=O)[C@@H](N)CCCCNC(=O)CC[C@H](NC(=O)C1CCC(CNC(=O)CCCCCCCCCCCCCCCCCCC(=O)O)CC1)C(=O)O)NC(=O)[C@H](CCC(=O)O)NC(=O)[C@H](CC(C)C)NC(=O)[C@H](Cc1ccc(O)cc1)NC(=O)[C@H](Cc1ccc(O)cc1)NC(=O)[C@H](CO)NC(=O)[C@H](Cc1ccc(O)cc1)NC(=O)[C@H](CC(=O)O)NC(=O)[C@H](CO)NC(=O)[C@@H](NC(=O)[C@H](Cc1ccccc1)NC(=O)[C@@H](NC(=O)CNC(=O)[C@H](Cc1c[nH]cn1)NC(=O)C(C)(C)NC(=O)[C@@H](N)Cc1c[nH]cn1)[C@@H](C)O)[C@@H](C)O)C(C)C)C(=O)N[C@@H](CCC(=O)O)C(=O)NCC(=O)NCC(=O)N1CCC[C@H]1C(=O)N[C@@H](CO)C(=O)N[C@@H](CO)C(=O)NCC(=O)N[C@@H](C)C(=O)N1CCC[C@H]1C(=O)N1CCC[C@H]1C(=O)N1CCC[C@H]1C(=O)N[C@@H](CO)C(N)=O` (stereo partly drawn) [Compound No. 25] (H-H[Aib]HGTFTSDYSYYLEK([εLys-εLys-γGlu-X1])QAA[Aib]EFVQWLLEGGPSSGAPPPS-NH2; N-terminus assumed), for which the half-life in series [1] is 79 h.
In turn, `CC[C@H](C)[C@H](NC(=O)[C@H](CO)NC(=O)[C@H](Cc1ccc(O)cc1)NC(=O)[C@H](CC(=O)O)NC(=O)[C@H](CO)NC(=O)[C@@H](NC(=O)[C@H](Cc1ccccc1)NC(=O)[C@@H](NC(=O)CNC(=O)[C@H](CCC(N)=O)NC(=O)C(C)(C)NC(=O)[C@@H](N)Cc1ccc(O)cc1)[C@@H](C)O)[C@@H](C)O)C(=O)N[C@@H](Cc1ccc(O)cc1)C(=O)N[C@@H](CC(C)C)C(=O)N[C@@H](CC(=O)O)C(=O)N[C@@H](CCCCNC(=O)COCCOCCNC(=O)COCCOCCNC(=O)CC[C@H](NC(=O)CCCCCCCCCCCCCCCCCCC(=O)O)C(=O)O)C(=O)N[C@@H](CCC(N)=O)C(=O)N[C@@H](C)C(=O)N[C@@H](C)C(=O)NC(C)(C)C(=O)N[C@@H](CCC(=O)O)C(=O)N[C@@H](Cc1ccccc1)C(=O)N[C@H](C(=O)N[C@@H](CC(N)=O)C(=O)N[C@@H](Cc1c[nH]c2ccccc12)C(=O)N[C@@H](CC(C)C)C(=O)N[C@@H](CC(C)C)C(=O)N[C@@H](C)C(=O)NCC(=O)NCC(=O)N1CCC[C@H]1C(=O)N[C@@H](CO)C(=O)N[C@@H](CO)C(=O)NCC(=O)N[C@@H](C)C(=O)N1CCC[C@H]1C(=O)N1CCC[C@H]1C(=O)N1CCC[C@H]1C(=O)N[C@@H](CO)C(N)=O)C(C)C` [Compound No. 5] (H-Y[Aib]QGTFTSDYSIYLDK([AEEA-AEEA-γGlu-C20 diacid])QAA[Aib]EFVNWLLAGGPSSGAPPPS-NH2; N-terminus assumed) gave a half-life in series [1] (female, Göttingen) of 85 h.
`CC[C@H](C)[C@H](NC(=O)[C@H](CO)NC(=O)[C@H](Cc1ccc(O)cc1)NC(=O)[C@H](CC(=O)O)NC(=O)[C@H](CO)NC(=O)[C@@H](NC(=O)[C@H](Cc1ccccc1)NC(=O)[C@@H](NC(=O)CNC(=O)[C@H](CCC(N)=O)NC(=O)C(C)(C)NC(=O)[C@@H](N)Cc1ccc(O)cc1)[C@@H](C)O)[C@@H](C)O)C(=O)N[C@@H](Cc1ccc(O)cc1)C(=O)N[C@@H](CC(C)C)C(=O)N[C@@H](CCC(=O)O)C(=O)N[C@@H](CCCCNC(=O)[C@@H](N)CCCCNC(=O)[C@@H](N)CCCCNC(=O)CC[C@H](NC(=O)CCCCCCCCCCCCCCCCCCC(=O)O)C(=O)O)C(=O)N[C@@H](CCC(N)=O)C(=O)N[C@@H](C)C(=O)N[C@@H](C)C(=O)NC(C)(C)C(=O)N[C@@H](CCC(=O)O)C(=O)N[C@@H](Cc1ccccc1)C(=O)N[C@H](C(=O)N[C@@H](CCC(N)=O)C(=O)N[C@@H](Cc1c[nH]c2ccccc12)C(=O)N[C@@H](CC(C)C)C(=O)N[C@@H](CC(C)C)C(=O)N[C@@H](CCC(=O)O)C(=O)NCC(=O)NCC(=O)N1CCC[C@H]1C(=O)N[C@@H](CO)C(=O)N[C@@H](CO)C(=O)NCC(=O)N[C@@H](C)C(=O)N1CCC[C@H]1C(=O)N1CCC[C@H]1C(=O)N1CCC[C@H]1C(=O)N[C@@H](CO)C(N)=O)C(C)C` [Compound No. 17] (H-Y[Aib]QGTFTSDYSIYLEK([εLys-εLys-γGlu-C20 diacid])QAA[Aib]EFVQWLLEGGPSSGAPPPS-NH2): the EC50 in series [2] was 2.8 pM.
